Results on 89 compounds are retold here after a melting point compilation (Tetko et al.; mined from patent text by program, amines drawn as free bases though some values may be those of a salt).

Each structure is given as a SMILES string.

`Cc1cc(-n2nn[nH]c2=O)c(Cl)cc1Cl` showed a melting point of 135 to 137 °C. For `COCc1ncn2c1CN(C)C(=O)c1ccccc1-2` the value was 115 to 116 °C. The value for `CC(C)Cn1nc(-c2ccc(F)cc2F)cc(CN2C(=O)c3ccccc3C2=O)c1=O` was 152 to 156 °C; that for `c1ccc2c3c4c(nc2c1)CCCC4SCCN3` (centres undefined) was 171 to 175 °C; that for `Brc1ccc(N2CCOCC2)cc1` was 118 to 120 °C. For `COc1ccc2nnc(-c3ncc([N+](=O)[O-])n3C)n2n1` the value was 193 to 198 °C. On to `COC(=O)C1CC(C#N)(c2ccccc2Cl)CCC1=O` (centres undefined), for which the melting point fell in the range of 113 to 118 °C. With `Cc1nc2c(o1)-c1c(SC(C)C)sc(C(=O)O)c1CC2`, the melting point lay in the range of 277 to 278 °C. For `CCn1c(=O)c2[nH]c(/C=C/c3ccc(OC)c(OC)c3OC)nc2n(CC)c1=O` the value was 276 to 277 °C. For `COc1cc2sc(/C=C(\Oc3ccc(C(C)C)cc3)C(=O)O)cc2c(Cl)c1OC` the value was 255 to 256 °C; for `COc1cc(OC)cc(-c2nc(C)nn2-c2ccc(S(N)(=O)=O)cc2)c1`, 207 to 208 °C; for `COC(=O)[C@H](CC(C)C)NC(=O)CNC(=O)[C@H](Cc1ccc(O)cc1)NC(=O)[C@H](CO)NC(=O)OCc1ccccc1`, 166 to 167 °C. Turning to `Cc1c(-c2ccc(O)cc2)n(Cc2ccc(/C=C/C(N)=O)cc2)c2ccc(O)cc12`, the melting point was 161 to 163 °C.

On to `CCNC(=O)c1cc(C(=O)O)cc(C(=O)NCC)n1`, for which the melting point was 278 to 280 °C. The value for `O=C(Nc1cccnc1)N1CCN(c2nccc(-c3cccc(F)c3F)n2)CC1` was 232 to 233 °C; that for `CSc1nn2c(N)cc(C)nc2c1S(=O)(=O)c1ccc(C)cc1` was more than 230 °C; that for `COc1cc(-c2ccccc2)c(C=O)cc1CC(=O)O` was 174 to 175 °C. In the case of `CC1(C)[C@@H](C=C(c2ccccc2)c2ccccc2)[C@@H]1C(=O)O` (relative stereo), the melting point came out at 115 °C. The value for `CCOC(=O)CC(NC(=O)c1ccc(F)cc1)C(=O)c1ccco1` (centres undefined) was 95.5 to 97 °C; that for `CC(=O)OCC1OC(OC2C(COC(C)=O)OC(Oc3ccc([N+](=O)[O-])cc3)C(OC(C)=O)C2OC(C)=O)C(OC(C)=O)C(OC(C)=O)C1OC(C)=O` (centres undefined) was 165 to 170 °C; that for `Cc1oc(-c2ccccc2)nc1COc1ccc(Cn2cc(CCC(=O)O)c(-c3ccccc3)n2)nc1` was 175 to 176 °C. For `FC(F)Oc1cccc2cnsc12` the value was 58 to 59 °C; for `COC(=O)c1c(C(F)F)nc(C(F)(F)F)c(C(=O)OC)c1O`, 83 to 84.5 °C; for `CCCOc1cc2c(cc1/C=C/c1ccc(C(=O)OCC)cc1)C(C)(C)CCC2(C)C`, 97 to 100 °C. For `O=C(CCl)c1cccn1Cc1ccccc1[N+](=O)[O-]` the value was 112 to 114 °C; for `Cc1ccc(S(=O)(=O)N2CCCC2c2ccc(C(F)(F)F)cc2)cc1` (racemic), 99 °C; for `COc1cc2cc(OCc3ccccc3)cnc2cc1OC`, 146 to 148 °C.

`Cc1c(Sc2cc(Cl)c(Cl)cc2Cl)cc(C(C)(C)C)c(O)c1C(=O)Nc1ccc([N+](=O)[O-])cc1C(F)(F)F`: the melting point was 179 to 180 °C. For `OC[C@@H]1CN(C(c2ccccc2)(c2ccccc2)c2ccccc2)CCO1` the value was 142 °C; for `CCOc1ccc(OCC(F)(F)F)cc1C(=O)O`, 101 to 103 °C. For `COC1=NS(=O)(=O)N(C)C(Cl)=N1`, the melting point is 77 to 83 °C. For `Clc1cc2c(cc1Cn1ccnc1)OCO2` the value was 99 to 102 °C; for `C=CC(O)C(NC=O)C(=O)OCC` (centres undefined), 50 to 51 °C. The compound `Fc1ccccc1-c1nncc2c(-c3ccccc3)c(OCc3ccccn3)nn12` had a melting point of 182 to 183 °C. For `CC(=O)Nc1ccc([N+](=O)[O-])cc1O` the value was more than 250 °C; for `Cc1cc2c(cc1O)C(C)(C)CC1(CC(C)(C)c3cc(OCC(N)=O)c(C)cc3O1)O2` (centres undefined), 220 to 221 °C; for `CC(C)CCCC(C)Cc1nc2c3ccsc3c3sccc3c2nc1CC(C)CCCC(C)C` (centres undefined), 57.5 to 58.7 °C. For `CCS(=O)(=O)Nc1cc(-c2ncnc(C(C)C)c2Cl)c(F)cc1C#N` the value was 160 to 162 °C; for `COC(=O)c1ccc(Cn2c(=O)c3cc(C(=O)NCc4ccc(OC)cc4)sc3n(C)c2=O)cc1C`, 179 to 181 °C; for `CSC[C@H](NC(C)=O)C(=O)N(C)N`, 156 to 157 °C. For `CCc1c(-c2ccc(OCc3ccccc3)cc2)c2c(C(=O)O)c(C(=O)O)c3c(OCc4ccccc4)ccc1n32` the value was 151 to 161 °C; for `Cc1ccc(C2c3c(C)c(N4C(=O)c5cc(Cl)c(Cl)cc5C4=O)c(C)c(C)c3OC2(C)C)cc1` (centres undefined), 157 to 159 °C; for `CCNC(=O)c1ccc(Cc2ccccc2)cn1`, 77 to 78 °C. Consider `O=C(Cn1nc(-c2cc(Cl)ccc2O)nc1-c1cc(Cl)ccc1O)NCCN1CCOCC1`, for which the melting point was 224 to 226 °C. On to `CCOC(=O)c1cc(Br)c2oc(C)c(C)c2c1`, for which the melting point lay in the range of 110 to 111 °C. The value for `CSc1nc2cccc3c2n1CC(N(C)C)C3` (centres undefined) was 84 to 86 °C; that for `CCOc1ccn([C@H]2CS[C@@H](CO)O2)c(=O)n1` (relative stereo) was 117 to 118 °C; that for `COc1cc(OC)c(-c2cccs2)cc1/C=C/C(=O)c1cccc(C(=O)O)c1` was 179 to 182 °C. The value for `C=CCN1C(=O)C2CCc3c(OC)c(OC)cc(C)c3C2C1=O` (centres undefined) was 90 to 91 °C; that for `CN(CCN1CCC(=C(c2ccc(F)cc2)c2ccc(F)cc2)CC1)c1nc(=O)cc[nH]1` was 164 to 165 °C. For `Cc1cccc(-c2ccccc2NC(=N)N2CCCCC2)c1` the value was 131 °C; for `CCOC(=O)C(C#N)=NOC(=O)OCc1ccccc1`, 101 to 102 °C; for `COc1cc2c(c(OC)c1OC)OCC2=O`, 81 to 83 °C. Turning to `N=C(NCC(F)(F)F)NC(N)=S`, the melting point was 164 to 166 °C. For `N#Cc1ccc(-c2nccc3[nH]c(=O)ccc23)cc1` the value was more than 300 °C; for `CC(=O)CCC1CCC2C(C=CC3=CCCc4c3n2c2ccncc42)C1` (centres undefined), 102 °C; for `COc1ccc(-c2nn(C(C)c3oc4ccccc4c(=O)c3-c3cccc(F)c3)c3ncnc(N)c23)cc1OC` (centres undefined), 232 to 235 °C. Consider `CCCCC1=NC2(CCCC2)C(=O)N1Cc1ccc(-c2ccccc2S(=O)(=O)Nc2onc(C)c2C)c(CCCC)c1`, for which the melting point lay in the range of 58 to 61 °C. The value for `CCOC(=O)C1=C(C)NC(C#N)=C(C(=O)OCC)C1c1ccccc1/C=C/C(=O)OC(C)(C)C` (centres undefined) was 146 to 147 °C. The value for `CCOc1cc(C2=NNC(=O)[C@H]3CC=CC[C@@H]23)ccc1OC` (relative stereo) was 163 to 166 °C; that for `CO/C=C(/C(=O)OC)c1ccccc1Oc1nc(Cl)nc(Oc2ccccc2)n1` was 103 to 104 °C; that for `O=C(NCCCn1ccnc1)c1ccccc1` was 134 to 136 °C.

As for `N#CCC#CC1(c2ccc(Cl)cc2)CC1`, the melting point was 62 to 64 °C.

`S=C(N1CCOCC1)C1(c2ccccn2)CCCS1` (centres undefined) showed a melting point of 139 °C. For `Cc1c(Cl)ccc(-n2c(-c3ccccc3)cc(=O)c(C)c2-c2ccccc2)c1Cl` the value was 237 to 238 °C; for `N#Cc1cc(F)c(-n2nc3ccc(Cl)cn3c2=O)cc1F`, more than 230 °C; for `O=C(CCl)N1CCC(Cc2ccc(Cl)cc2)CC1`, 70 °C.

`CC1Oc2c(Cc3ccccc3)cc(C=O)cc2NC1=O` (centres undefined) displayed a melting point of 163 to 166 °C.

`Cc1cnc(C)n1CC(O)c1ccc(-c2ccc(N3C[C@H](Cn4ccnn4)OC3=O)cc2F)cn1` (some centres undefined) gave a melting point of 195 to 200 °C. For `Cc1nn2ccccc2c1C(=O)C1=CN(C(=O)Nc2ccc(Cl)cc2)CCC1` the value was 198 to 200 °C; for `Cn1ncc(C(=O)N2CCS(=O)(=O)CC2)c1C(=O)Nc1ccn2nc(-c3ccccc3)nc2c1`, more than 250 °C.

`CC(=O)Nc1cscn1`: the melting point amounted to 176 °C. The value for `CCCc1cc2ccccn2c1C(=O)c1ccc(O)c(Cl)c1` was 165 °C; that for `COCc1cc([N+](=O)[O-])ccc1N1C(=O)c2ccc(Cl)cc2C1=O` was 125 to 128 °C; that for `COc1ccc(N2CCCn3c2nc2c(Cl)ccc(C(OCC(F)(F)F)C4CC4)c23)c(C)c1` (centres undefined) was 157 to 158 °C. The value for `Cc1oc(-c2ccc3ccccc3c2)nc1/C=C/c1ccc(C=O)cc1` was 162 to 163 °C; that for `O=C(O)C(O)P(=O)(O)O` (centres undefined) was 153 to 154 °C; that for `CNCC1Cc2cc(-c3ccccc3)cc(-c3ccc(OC)cc3)c2O1` (centres undefined) was more than 250 °C. For the compound `COc1ccccc1CNCc1c(-c2ccccc2)c2cc(C)c(C)cc2c(=O)n1C`, the melting point lay in the range of 159 to 160 °C. The value for `Cc1cc(-c2cc([N+](=O)[O-])ccc2F)cc(C)n1` was 169 to 171 °C. The value for `CCOC(=O)Cc1cc(C)c(C(=O)c2ccc(F)cc2)n1C` was 84 to 86 °C; that for `O=C(N[C@H]1CCN(CCCOc2ccc(F)cc2)C[C@H]1O)c1ccccc1` (relative stereo) was 130 °C; that for `CCOC(=O)c1c(C)c(C(=O)O)c(C)n1C` was 197 to 198 °C.

Compound `NC(=O)Cc1nc(-c2ccccc2)c(-c2ccccc2)o1` showed a melting point of 129 to 133 °C.

In turn, `CCNC(=O)c1c(NC(=O)c2cc(C(F)(F)F)nn2-c2ncccc2Cl)c(C)cc2nc(C)ccc12` displayed a melting point of more than 230 °C.

In turn, `CCCC(=O)N(NC(N)=S)c1ccccc1` returned a melting point of 219 to 221 °C. For `COC(=O)c1[nH]c(=S)n(Nc2cccc(Cl)c2)c1C` the value was 160 to 162 °C.

Compound `COc1ccc(C=CC(=O)N[C@@H](Cc2ccccc2)C(=O)CSCc2ccsc2)c(OC)c1` returned a melting point of 142 to 143 °C. The value for `CC(C)(C)OC(=O)NCCCCC/C=C/C(=O)O` was 76 to 78 °C.

The term melting point denotes the temperature, or range, at which the solid turns liquid.
